Experimental data as given in ChEMBL document CHEMBL1201862, “PubChem BioAssay data set” (2004).
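Interpolation was linear, between the two tested concentrations surrounding the appropriate level; five concentrations were tested over 48 hours in 96-well plates. GI50 is the concentration that inhibits growth by half.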 Calls of active or inactive are those of the source. No stated cut-off is given here; in the data, active = GI50 up to about 1.1 µM and inactive = higher.

How the values were obtained:
Test in all cases: NCI tumour cell line growth inhibition, 48 h
SF-539 = test system: SF-539
IGROV-1 = test system: IGROV-1
UO-31 = test system: UO-31
KM12 = test system: KM12
CAKI-1 = test system: CAKI-1
NCI-H23 = test system: NCI-H23
HL-60 = test system: HL-60
NCI-H460 = test system: NCI-H460
HCC 2998 = test system: HCC 2998
DU-145 = test system: DU-145
UACC-257 = test system: UACC-257
SF-268 = test system: SF-268
LOX IMVI = test system: LOX IMVI
MDA-N = test system: MDA-N
RPMI-8226 = test system: RPMI-8226
NCI-H522 = test system: NCI-H522
HOP-62 = test system: HOP-62
NCI-H226 = test system: NCI-H226
SK-OV-3 = test system: SK-OV-3
Malme-3M = test system: Malme-3M

Row | Compound | GI50 (SF-539) | GI50 (IGROV-1) | GI50 (UO-31) | GI50 (KM12) | GI50 (CAKI-1) | GI50 (NCI-H23) | GI50 (HL-60) | GI50 (NCI-H460) | GI50 (HCC 2998) | GI50 (DU-145) | GI50 (UACC-257) | GI50 (SF-268) | GI50 (LOX IMVI) | GI50 (MDA-N) | GI50 (RPMI-8226) | GI50 (NCI-H522) | GI50 (HOP-62) | GI50 (NCI-H226) | GI50 (SK-OV-3) | GI50 (Malme-3M)
1 | COC(=O)c1ccc(CCC2=CC(=O)C=CC2=O)cc1 | 11.5 µM (inactive) | 14.6 µM (inactive) | 7.36 µM (inactive) | 11.9 µM (inactive) | 4.11 µM (inactive) | 17.9 µM (inactive) | 0.728 µM (active) | 19 µM (inactive) | 16.7 µM (inactive) | 18.2 µM (inactive) | 9.08 µM (inactive) | 15 µM (inactive) | 6.4 µM (inactive) | 12.5 µM (inactive) | 1.8 µM (inactive) | 1.62 µM (inactive) | 19.1 µM (inactive) | 16.7 µM (inactive) | – | –
2 | Cc1nnc(N)nc1/C=C\c1ccc(Cl)cc1Cl | – | 16.3 µM (inactive) | 54.2 µM (inactive) | 18.6 µM (inactive) | > 100 µM (inactive) | 33.7 µM (inactive) | 27 µM (inactive) | 19.9 µM (inactive) | 21.6 µM (inactive) | 72.8 µM (inactive) | 54.6 µM (inactive) | 34.8 µM (inactive) | 40.2 µM (inactive) | 55.5 µM (inactive) | 45.4 µM (inactive) | 24.2 µM (inactive) | 20.3 µM (inactive) | 17.3 µM (inactive) | 45.5 µM (inactive) | 23.8 µM (inactive)
3 | C=C1CC2(C)CCC(OC(=O)C3(C)OC3C)C(C)(OC(C)=O)C2CC1=C(C)C (stereo unspecified) | > 100 µM (inactive) | > 100 µM (inactive) | > 100 µM (inactive) | > 100 µM (inactive) | > 10 µM (inactive) | > 100 µM (inactive) | 24.9 µM (inactive) | > 100 µM (inactive) | > 100 µM (inactive) | > 100 µM (inactive) | > 100 µM (inactive) | > 100 µM (inactive) | > 100 µM (inactive) | > 100 µM (inactive) | > 100 µM (inactive) | > 100 µM (inactive) | > 100 µM (inactive) | – | > 100 µM (inactive) | > 100 µM (inactive)
4 | Cc1c(C)c2c(c(N)c1C#N)C(=O)N(NC(=O)c1ccccc1)C2=O | > 100 µM (inactive) | > 100 µM (inactive) | 36.1 µM (inactive) | > 100 µM (inactive) | > 100 µM (inactive) | – | > 100 µM (inactive) | > 100 µM (inactive) | > 100 µM (inactive) | > 100 µM (inactive) | > 100 µM (inactive) | > 100 µM (inactive) | > 100 µM (inactive) | > 100 µM (inactive) | > 100 µM (inactive) | > 100 µM (inactive) | – | > 100 µM (inactive) | – | > 100 µM (inactive)
5 | C[C@]12[C@@H]3CC[C@H]1[C@@H](OC(=O)Nc1cc([N+](=O)[O-])cc([N+](=O)[O-])c1)C(=O)N2CC3 | – | > 100 µM (inactive) | > 100 µM (inactive) | > 100 µM (inactive) | > 100 µM (inactive) | > 100 µM (inactive) | 62.8 µM (inactive) | > 100 µM (inactive) | > 100 µM (inactive) | > 100 µM (inactive) | > 100 µM (inactive) | > 100 µM (inactive) | > 100 µM (inactive) | > 100 µM (inactive) | > 100 µM (inactive) | > 100 µM (inactive) | > 100 µM (inactive) | > 100 µM (inactive) | > 100 µM (inactive) | > 100 µM (inactive)
6 | C/C=C(\C)C(=O)OC1CC(OC(C)=O)C2(C(=O)OC)COC3C2C1(C)C1C2(C(=O)OC)OCC1(C3O)C1(O)C3CC(C4(O)C=COC4O3)C1(C)O2 (stereo unspecified) | > 100 µM (inactive) | > 100 µM (inactive) | > 100 µM (inactive) | > 100 µM (inactive) | > 100 µM (inactive) | > 100 µM (inactive) | 92 µM (inactive) | > 100 µM (inactive) | 62.5 µM (inactive) | > 100 µM (inactive) | > 100 µM (inactive) | > 100 µM (inactive) | > 100 µM (inactive) | 34.4 µM (inactive) | > 100 µM (inactive) | > 100 µM (inactive) | > 100 µM (inactive) | > 100 µM (inactive) | > 100 µM (inactive) | –
7 | O=[N+]([O-])c1ccc(-c2csc3nc(-c4ccccc4)nn23)cc1 | – | > 100 µM (inactive) | > 100 µM (inactive) | > 100 µM (inactive) | 72.8 µM (inactive) | > 100 µM (inactive) | > 100 µM (inactive) | – | > 100 µM (inactive) | > 100 µM (inactive) | > 100 µM (inactive) | 82 µM (inactive) | > 100 µM (inactive) | > 100 µM (inactive) | > 100 µM (inactive) | > 100 µM (inactive) | 43.9 µM (inactive) | > 100 µM (inactive) | 61.9 µM (inactive) | > 100 µM (inactive)
8 | CCCOC(=O)NC(C)C(=O)NC(CCC(=O)NC(CCCC(N)C(=O)O)C(=O)NC(C)C(=O)O)C(=O)O (stereo unspecified) | 14.8 µM (inactive) | 62.2 µM (inactive) | 41.8 µM (inactive) | 14.4 µM (inactive) | 19.9 µM (inactive) | > 100 µM (inactive) | 24.8 µM (inactive) | 38.7 µM (inactive) | 17.1 µM (inactive) | 24.4 µM (inactive) | > 10 µM (inactive) | 16.7 µM (inactive) | 16.6 µM (inactive) | 21.1 µM (inactive) | 12.3 µM (inactive) | 26.8 µM (inactive) | > 100 µM (inactive) | – | – | –
9 | OCC1CCCC1O (stereo unspecified) | > 100 µM (inactive) | > 100 µM (inactive) | > 100 µM (inactive) | > 100 µM (inactive) | > 100 µM (inactive) | > 100 µM (inactive) | > 100 µM (inactive) | > 100 µM (inactive) | > 100 µM (inactive) | > 100 µM (inactive) | > 100 µM (inactive) | > 100 µM (inactive) | – | > 100 µM (inactive) | > 100 µM (inactive) | > 100 µM (inactive) | – | > 100 µM (inactive) | – | > 100 µM (inactive)
10 | COc1ccc(-c2nc3cc(C(F)(F)F)ccc3n2CC2CCCN3CCCCC23)cc1 (stereo unspecified) | 16.8 µM (inactive) | 13.9 µM (inactive) | 17.1 µM (inactive) | 19.4 µM (inactive) | 21 µM (inactive) | 15.6 µM (inactive) | 14.3 µM (inactive) | 15.8 µM (inactive) | 12.1 µM (inactive) | 17.1 µM (inactive) | 13.8 µM (inactive) | 15.3 µM (inactive) | 15 µM (inactive) | 19.3 µM (inactive) | 14.2 µM (inactive) | 15.6 µM (inactive) | 18.7 µM (inactive) | 16.5 µM (inactive) | 17.7 µM (inactive) | –
11 | COc1cc(C23OCC(Cc4cc5c(cc42)OCO5)C3CO)cc(OC)c1OC (stereo unspecified) | 2.52 µM (inactive) | 2.44 µM (inactive) | 8.95 µM (inactive) | 0.215 µM (active) | 5.79 µM (inactive) | 3.45 µM (inactive) | 2.76 µM (inactive) | 3.23 µM (inactive) | 0.24 µM (active) | 2.64 µM (inactive) | > 100 µM (inactive) | 4.82 µM (inactive) | 1.97 µM (inactive) | 0.402 µM (active) | – | 2.22 µM (inactive) | 4.34 µM (inactive) | 3.85 µM (inactive) | 3.19 µM (inactive) | 6.14 µM (inactive)
12 | O=C(NC(Cc1c[nH]c2ccccc12)C(=O)O)/C(=C/c1ccccc1O)NC(=O)c1ccccc1 (stereo unspecified) | 16.1 µM (inactive) | 19.2 µM (inactive) | 6.78 µM (inactive) | 7.16 µM (inactive) | 18.8 µM (inactive) | 51.6 µM (inactive) | > 100 µM (inactive) | 33.2 µM (inactive) | 42.2 µM (inactive) | 43.4 µM (inactive) | > 100 µM (inactive) | 17.6 µM (inactive) | 33 µM (inactive) | 7.05 µM (inactive) | > 100 µM (inactive) | 20.4 µM (inactive) | – | 16.3 µM (inactive) | 22.3 µM (inactive) | 22.4 µM (inactive)
13 | CC1(C)CCC[C@](C)([C@H]2CC[C@]3(C)[C@@H]2[C@H](O)C[C@@H]2[C@@]4(C)CC[C@H](O)C(C)(C)[C@@H]4[C@H](O)C[C@]23C)O1 | 11.7 µM (inactive) | 17.5 µM (inactive) | 11.7 µM (inactive) | 11.1 µM (inactive) | 5.6 µM (inactive) | 11.3 µM (inactive) | 2.16 µM (inactive) | 10.1 µM (inactive) | 13.9 µM (inactive) | 15.8 µM (inactive) | 13.7 µM (inactive) | 13.8 µM (inactive) | 17.5 µM (inactive) | 13.5 µM (inactive) | – | 12.1 µM (inactive) | – | 15.7 µM (inactive) | 16.9 µM (inactive) | 19.1 µM (inactive)
14 | C[n+]1c(-c2ccc(/C=N\Nc3ccnc(N/N=C/c4ccc(-c5cn6ccsc6[n+]5C)cc4)n3)cc2)cn2ccsc21 | 11.6 µM (inactive) | 11.2 µM (inactive) | 20 µM (inactive) | 15.8 µM (inactive) | 22.7 µM (inactive) | 11.5 µM (inactive) | 24.2 µM (inactive) | 23 µM (inactive) | 37.2 µM (inactive) | 27.8 µM (inactive) | 17.7 µM (inactive) | – | – | 2.96 µM (inactive) | 4.65 µM (inactive) | > 100 µM (inactive) | 18.1 µM (inactive) | 16.4 µM (inactive) | > 100 µM (inactive) | 29.7 µM (inactive)
